Our source for the IC50 values is patent US12227509B2, “Dihydropyrazolopyrazinone derivative having MGAT2 inhibitory activity” (Shionogi & Co., Ltd., priority 2019, dated 2025).

Each structure is given as a SMILES string.

The assay concerns the target recombinant human MGAT2 (Homo sapiens (Human), UniProt Q3SYC2). Nature of the assay: Measurement of human MGAT2 inhibitory activity. The assay is classed as biochemical. To be noted: concentration exhibiting 50% enzyme inhibition, recombinant human MGAT2, 2-Oleoylglycerol/Oleoyl-CoA. Here is the method:
A full-length human MGAT2 gene to which a Flag-tag had been added at the N-terminal was inserted into pFastBac (from Invitrogen). A recombinant baculovirus was produced in accordance with the protocol for a Bac-to-Bac baculovirus expression system (produced by Invitrogen), and Sf-9 cells were infected therewith. The cells were collected and sonicated, and then the membrane fraction was collected through centrifugation. Western blotting analysis with an anti-Flag antibody was performed for the membrane fraction to confirm expression, and the membrane fraction was used as a recombinant human MGAT2 enzyme solution.
Solutions of the compounds of the present invention in DMSO were each aliquoted into 0.2-μL portions in a 384-well polystyrene microplate produced by Corning Incorporated, and 5 μL of an enzyme solution prepared with an assay buffer (100 mmol/L phosphate buffer (pH 7.4) containing 2 mmol/L DTT) and 5 μL of a substrate solution (100 mmol/L phosphate buffer (pH 7.4), 30 μmol/L 2-Oleoylglycerol, 10 μmol/L Oleoyl-CoA) were added thereto, and the resultant was stirred and centrifuged, and incubated in a moist chamber at room temperature for 1 hour. After enzymatic reaction, 50 μL of a quenching solution (containing 0.2 μmol/L Diolein-d5, 0.4% formic acid, and 50% isopropanol) containing Internal Standard (IS) was added to terminate the reaction, and the resultant was sealed in a plate produced by Shimadzu GLC Ltd., and then stirred and centrifuged, and measurement was performed by using an electrospray ionization method with a RapidFire360 and Agilent 6550 Q-TOF mass spectrometer. Diolein as a reaction product (P) of 2-Oleoylglycerol as the substrate and an ammonium adduct ion of the IS were detected, and the peak intensity ratio, P/IS, was calculated from the peak heights to evaluate the inhibitory activity. Inhibitory activities with/without addition of enzyme were defined as Control (+)/Control (−), respectively, and the respective % inhibitions were defined as 0% inhibition and 100% inhibition. The inhibitory activity was calculated from formula below with TIBCO Spotfire (produced by TIBCO Software Inc.)
Inhibitory activity (%)=[1−{Sample−Control (−)}/{Control (+)−Control (−)}]*100 where Sample indicates a peak intensity ratio: P/IS, when the compound of the present invention was added.

recombinant human MGAT2, sequence (Q3SYC2 whole entry): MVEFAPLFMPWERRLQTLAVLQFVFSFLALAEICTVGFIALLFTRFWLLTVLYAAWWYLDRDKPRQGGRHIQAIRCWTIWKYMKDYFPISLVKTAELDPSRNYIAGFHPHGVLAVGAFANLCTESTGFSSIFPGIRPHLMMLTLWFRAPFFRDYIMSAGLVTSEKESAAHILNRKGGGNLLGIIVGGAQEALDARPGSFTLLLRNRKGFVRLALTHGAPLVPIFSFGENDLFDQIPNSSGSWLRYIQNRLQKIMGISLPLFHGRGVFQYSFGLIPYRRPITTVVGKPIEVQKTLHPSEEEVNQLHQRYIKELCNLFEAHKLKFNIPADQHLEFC

Take `CS(=O)(=O)CC(=O)Nc1c(CCC(F)(F)F)nn2c1C(=O)N[C@]1(CCc3cc(OCC(F)(F)F)ccc31)C2` [Compound I-102]: the IC50 (in general, the concentration needed to halve the response being measured) was 5.65 nM.
On the same count and under the same terms, next, `CS(=O)(=O)CC(=O)Nc1c(-c2ccc(C3CC3)cn2)nn2c1C(=O)N[C@@]1(CCc3cc(OCC(F)(F)F)ccc31)C2` [Compound I-57]: 1.14 nM; `CS(=O)(=O)CC(=O)Nc1c(-c2ccc(F)cn2)nn2c1C(=O)N[C@@]1(CCOc3cc(F)cc(F)c31)C2` [Compound I-119]: 2.98 nM; `CS(=O)(=O)CC(=O)Nc1c(-c2ccc(F)cc2)nn2c1C(=O)N[C@@]1(CCOc3cc(F)cc(F)c31)C2` [Compound I-125]: 2.8 nM.
`CCCCCc1nn2c(c1NC(=O)CS(C)(=O)=O)C(=O)N[C@]1(CCOc3cc(OCC(F)(F)F)ccc31)C2` [Compound I-114]: the IC50 was 3.1 nM.
For `CCS(=O)(=O)CC(=O)Nc1c(-c2ccc(C)cn2)nn2c1C(=O)N[C@@]1(CCc3cc(F)cc(F)c31)C2` [Compound I-122], the half-maximal inhibitory concentration (IC50) is 21.4 nM.
For the molecule `Cc1ccc(-c2nn3c(c2NC(=O)CS(=O)(=O)N(C)C)C(=O)N[C@@]2(CCc4cc(OCC(F)(F)F)ccc42)C3)nc1` [Compound I-128], the half-inhibitory concentration (IC50) came to 91.9 nM.
Same read-out and setting: next, `Cc1c(F)cc(-c2nn3c(c2NC(=O)CS(C)(=O)=O)C(=O)N[C@@]2(CCc4cc(OCC(F)(F)F)ccc42)C3)cc1F` [Compound I-53]: 1.75 nM.
The same measure, in the same setting: the value for `Cc1ccc(-c2nn3c(c2NC(=O)CC(F)(F)F)C(=O)N[C@]2(CCc4cc(OCC(F)(F)F)ccc42)C3)nc1` [Compound I-39] was 248 nM; that for `CS(=O)(=O)CC(=O)Nc1c(-c2ccc(F)cc2)nn2c1C(=O)N[C@]1(CCOc3cc(OCC(F)(F)F)ccc31)C2` [Compound I-70] was 2.6 nM.
As to `C[S@@](=N)(=O)CC(=O)Nc1c(-c2cc(F)c(F)c(F)c2)nn2c1C(=O)N[C@@]1(CCc3cc(OCC(F)(F)F)ccc31)C2` (single isomer, unassigned) [Compound I-106], the IC50 was found to be 4.95 nM.
As for `CNS(=O)(=O)CC(=O)Nc1c(-c2ccc(C)cn2)nn2c1C(=O)N[C@]1(CCc3cc(OCC(F)(F)F)ccc31)C2` [Compound I-41], the IC50 stood at 1.04 nM.
In the case of `CS(=O)(=O)CC(=O)Nc1c(-c2ccccc2)nn2c1C(=O)N[C@]1(CCc3cc(OCC(F)(F)F)ccc31)C2` [Compound I-2], the IC50 is 6.6 nM.
In the case of `CS(=N)(=O)CC(=O)Nc1c(-c2ccc(F)c(F)c2)nn2c1C(=O)N[C@@]1(CCc3cc(OCC(F)(F)F)ccc31)C2` (some centres unmarked) [Compound I-108], the IC50 worked out at 3.43 nM.
Turning to `CS(=O)(=O)CC(=O)Nc1c(-c2ccc(C#N)cc2)nn2c1C(=O)N[C@@]1(CCc3cc(OCC(F)(F)F)ccc31)C2` [Compound I-31], the IC50 came out at 2.23 nM.
With `N#Cc1ccc(-c2nn3c(c2NC(=O)c2ccno2)C(=O)N[C@]2(CCc4cc(OCC(F)(F)F)ccc42)C3)nc1` [Compound I-8], the IC50 came to 1.02 nM.
With `CCCCCc1nn2c(c1NC(=O)CS(C)(=O)=O)C(=O)N[C@@]1(CCOc3cc(OCC(F)(F)F)ccc31)C2` [Compound I-113], the IC50 amounted to 1.58 nM.
As to `CS(=O)(=O)CC(=O)Nc1c(-c2ccc(C#N)c(F)c2)nn2c1C(=O)N[C@@]1(CCc3cc(OCC(F)(F)F)ccc31)C2` [Compound I-51], the IC50 turned out to be 1.32 nM.
With `COc1ccc(-c2nn3c(c2NC(=O)CS(C)(=O)=O)C(=O)N[C@]2(CCc4cc(OCC(F)(F)F)ccc42)C3)cc1` [Compound I-82], the IC50 was found to be 6.51 nM.
For `CS(=O)(=O)CC(=O)Nc1c(-c2ccc(C#N)cc2)nn2c1C(=O)N[C@]1(CCc3cc(OCC(F)(F)F)ccc31)C2` [Compound I-87], the IC50 was 2.55 nM.
For `CS(=O)(=O)CC(=O)Nc1c(-c2ccc(C3CC3)cc2)nn2c1C(=O)N[C@]1(CCc3cc(OCC(F)(F)F)ccc31)C2` [Compound I-85], the concentration for half-maximal inhibition (IC50) is 2.88 nM.
On to `CS(=O)(=O)CC(=O)Nc1c(CCCC(F)(F)F)nn2c1C(=O)NC1(CCc3cc(OCC(F)(F)F)ccc31)C2` (single isomer, unassigned) [Compound I-62], for which, for the setting “listed as 1-62”, the IC50 came to 1.39 nM.
As for `CS(=O)(=O)CC(=O)Nc1c(CCCC(F)(F)F)nn2c1C(=O)NC1(CCc3cc(OCC(F)(F)F)ccc31)C2` (single isomer, unassigned) [Compound I-63], where the note is “listed as 1-63”, the IC50 was found to be 1.24 nM.
As to `CS(=O)(=O)CC(=O)Nc1c(-c2ccc(C(F)(F)F)cc2)nn2c1C(=O)N[C@]1(CCc3cc(OCC(F)(F)F)ccc31)C2` [Compound I-81], the IC50 worked out at 1.54 nM.
As to `CS(=O)(=O)CC(=O)Nc1c(-c2cc(F)c(F)c(F)c2)nn2c1C(=O)N[C@@]1(CCc3cc(OCC(F)(F)F)ccc31)C2` [Compound I-36], the IC50 turned out to be 0.617 nM.
On to `Cc1cc(F)ccc1-c1nn2c(c1NC(=O)CS(C)(=O)=O)C(=O)N[C@]1(CCc3cc(OCC(F)(F)F)ccc31)C2` [Compound I-91], for which the IC50 was 19.5 nM.
Turning to `N#Cc1ccc(-c2nn3c(c2NC(=O)COC(F)(F)F)C(=O)N[C@@]2(CCc4cc(OCC(F)(F)F)ccc42)C3)nc1` [Compound I-17], the IC50 was found to be 58 nM.
On the same count and under the same terms, next, `COc1ccc(-c2nn3c(c2NC(=O)CS(C)(=O)=O)C(=O)N[C@@]2(CCc4cc(OCC(F)(F)F)ccc42)C3)cc1F` [Compound I-52]: 15.2 nM; `CS(=N)(=O)CC(=O)Nc1c(-c2ccc(Cl)c(F)c2)nn2c1C(=O)N[C@@]1(CCc3cc(OCC(F)(F)F)ccc31)C2` (some centres unmarked) [Compound I-73]: 2.82 nM; `CCCCCc1nn2c(c1NC(=O)CS(C)(=O)=O)C(=O)N[C@@]1(CCc3cc(OCC)ccc31)C2` [Compound I-104]: 24.7 nM.
Consider `CS(=O)(=O)CC(=O)Nc1c(-c2ccc(OC(F)(F)F)cc2)nn2c1C(=O)N[C@@]1(CCc3cc(OCC(F)(F)F)ccc31)C2` [Compound I-27], for which the IC50 stood at 7.01 nM.
Consider `CCOc1ccc2c(c1)CC[C@]21Cn2nc(-c3ccc(F)c(F)c3)c(NC(=O)CS(C)(=O)=O)c2C(=O)N1` [Compound I-117], for which the half-maximal inhibitory concentration (IC50) turned out to be 4.83 nM.
For `CS(=O)(=O)CC(=O)Nc1c(-c2ccc(S(C)(=O)=O)cc2)nn2c1C(=O)N[C@]1(CCc3cc(OCC(F)(F)F)ccc31)C2` [Compound I-96], the IC50 stood at 208 nM.
In the case of `CCOc1ccc2c(c1)OCC[C@@]21Cn2nc(-c3ccc(F)cc3)c(NC(=O)CS(C)(=O)=O)c2C(=O)N1` [Compound I-134], the IC50 was found to be 4.49 nM.
For `CS(=O)(=O)CC(=O)Nc1c(-c2ccc(C3CC3)cn2)nn2c1C(=O)N[C@]1(CCc3cc(OCC(F)(F)F)ccc31)C2` [Compound I-56], the IC50 was 1.03 nM.
As to `Cc1ccc(-c2nn3c(c2NC(=O)CS(C)(=O)=O)C(=O)NC2(CN(c4ccc(C(F)(F)F)cc4)C2)C3)nc1` [Compound I-65], the IC50 stood at 0.935 nM.
As for `COc1ccc(-c2nn3c(c2NC(=O)CS(C)(=O)=O)C(=O)N[C@]2(CCc4cc(OCC(F)(F)F)ccc42)C3)cc1F` [Compound I-100], the IC50 is 4.59 nM.
Regarding `C[S@](=N)(=O)CC(=O)Nc1c(-c2ccc(F)c(Cl)c2)nn2c1C(=O)N[C@@]1(CCc3cc(OCC(F)(F)F)ccc31)C2` (single isomer, unassigned) [Compound I-107], the IC50 came out at 1.19 nM.
For the molecule `CC(C)c1ccc(-c2nn3c(c2NC(=O)CS(C)(=O)=O)C(=O)N[C@]2(CCc4cc(OCC(F)(F)F)ccc42)C3)cc1` [Compound I-97], the half-inhibitory concentration (IC50) was 3.51 nM.
Turning to `Cc1cc(F)ccc1-c1nn2c(c1NC(=O)CS(C)(=O)=O)C(=O)N[C@@]1(CCc3cc(OCC(F)(F)F)ccc31)C2` [Compound I-35], the IC50 amounted to 32.2 nM.
As to `CS(=O)(=O)CC(=O)Nc1c(-c2ccc(F)cc2)nn2c1C(=O)N[C@@]1(CCc3cc(OCC(F)(F)F)ccc31)C2` [Compound I-23], the IC50 is 1.2 nM.
On the same count and under the same terms, next, `CS(=O)(=O)CC(=O)Nc1c(-c2ccc(F)cn2)nn2c1C(=O)N[C@@]1(CCc3cc(F)cc(F)c31)C2` [Compound I-121]: 6.02 nM.
The same measure, in the same setting: next, `CS(=N)(=O)CC(=O)Nc1c(-c2ccc(C(F)(F)F)cc2)nn2c1C(=O)N[C@@]1(CCc3cc(OCC(F)(F)F)ccc31)C2` (some centres unmarked) [Compound I-112]: 3.96 nM; `CS(=O)(=O)CC(=O)Nc1c(CCC2CC2)nn2c1C(=O)N[C@]1(CCc3cc(OCC(F)(F)F)ccc31)C2` [Compound I-94]: 1.08 nM.
In the case of `N#Cc1ccc(-c2nn3c(c2NC(=O)CC(F)(F)F)C(=O)N[C@]2(CCc4cc(OCC(F)(F)F)ccc42)C3)nc1` [Compound I-9], the IC50 was 22.5 nM.
Still for that read-out and setting: the value for `CS(=O)(=O)CC(=O)Nc1c(-c2cc(F)c(F)c(F)c2)nn2c1C(=O)N[C@]1(CCc3cc(OCC(F)(F)F)ccc31)C2` [Compound I-92] was 0.585 nM; that for `Cc1ccc(-c2nn3c(c2NC(=O)C2CS(=O)(=O)C2)C(=O)N[C@]2(CCc4cc(OCC(F)(F)F)ccc42)C3)nc1` [Compound I-40] was 7.33 nM.
